Patent US20160102099A1, “ANTI-VIRAL COMPOUNDS” (Kineta, Inc., priority 2011, published 2016)
“Also recorded” adds a separate entry of the source.

Assays:
IRF-3 = assay: Immunofluorescent cytochemistry assay, IRF-3 activation and translocation to the nucleus; assay type: cell-based, human; details: U2OS cells (method) / HeLa cells (figure legend), 20 hours, increasing amounts, FIG. 2A
Experimental: Immunofluorescent Cytochemistry Assay to Determine IRF-3 Activation and Translocation to the Nucleus.
The induction of ISG expression mediated by RIG-I is conferred by phosphorylation, dimerization, and nuclear translocation of the IRF-3 transcription factor. Cultured human U2OS cells were treated with increasing amounts of compound or equivalent amounts of DMSO diluted in media for 20 hours. Positive control wells were infected with 100 HA/mL Sendai virus for an equivalent time period. IRF-3 was detected using polyclonal rabbit serum specific to IRF-3 and a secondary antibody conjugated to DYLIGHT™ 488.
(§1) Quantification of Immunofluorescent Assays.
(§2) 96-well plates containing cultured human cells treated with compound and stained for either IRF-3 or NFκB were scanned and quantified using the ARRAYSCAN® instrument and software (Cellomics). Activation of transcription factor is evidenced by increased nuclear intensity normalized for cytoplasmic intensity, or nuclear-cytoplasmic difference.

NFκB = assay: Immunofluorescent cytochemistry assay, NFκB activation; assay type: cell-based, human; details: HeLa cells, 20 hours, increasing amounts, FIG. 2B
Experimental: Immunofluorescent Cytochemistry Assay to Determine NFκB Activation.
The innate immune response dependent on RIG-I also activates the NFκB transcription factor and thus increases nuclear levels. Cultured human HeLa cells were treated with increasing amounts of compound or equivalent amounts of DMSO diluted in media for 20 hours. Positive control wells were infected with 100 HA/mL Sendai virus for an equivalent time period. NFκB was detected using, in this example, monoclonal mouse antibody specific to the p65 subunit of NFκB and a secondary antibody conjugated to DyLight 488.
as §1, §2

β-actin promoter = assay: Actin counterscreen (β-actin-luciferase reporter); assay type: cell-based, human; details: specificity counterscreen, FIG. 1B
IFNβ promoter = assay: Luciferase reporter assay, IFNβ promoter; assay type: cell-based; details: stably transfected human cells, 18-20 hours with compound, FIG. 1A
Experimental: (§3) Luciferase Assay to Identify Active Compounds. Cultured human cells that were stably transfected with luciferase reporter gene driven by RIG-I responsive promoter (IFNβ, ISG56, or ISG54 promoter) were seeded and allowed to grow overnight. The compound “KIN2000” was then added and cells were grown in the presence of KIN2000 for 18-20 hours. Steady-Glo luciferase substrate (Promega) was added and luminescence was read on a luminometer (Berthold).

[1] = tested on: human primary dendritic cells; assay: Ex vivo cytokine expression in primary dendritic cells (Luminex/MAGPIX); assay type: cell-based; details: dendritic cells, 0, 1 or 10 μM, 24 hours, supernatant, FIG. 3
Experimental: The activity of KIN2000 in primary immune cells was assayed to determine whether KIN2000 stimulates immune responses. In this example, cultured human primary dendritic cells were treated with 0, 1, or 10 μM of KIN2000 for 24 hours. Supernatant from treated wells was isolated and tested for levels of cytokine protein. Cytokines were detected using specific antibodies conjugated to magnetic beads and a secondary antibody that reacts with Streptavidin/Phycoerythrin to produce a fluorescent signal. The bound beads were detected and quantified using the MAGPIX® instrument (LUMINEX®) in this Example, but a similar technique can also be used to measure fluorescent protein production, such as an ELISA.

HeLa cells = assay: MTS assay to determine cytotoxicity; assay type: cell-based, human; details: 48 hours, 0, 1, 5, 10 and 20 μM, FIG. 1C
Experimental: MTS Assay to Determine Cytotoxicity. Cultured human HeLa cells were treated with increasing amounts of compound or equivalent amounts of DMSO diluted in media for 48 hours to see their effect on cell viability. The proportion of viable cells was calculated using a cell viability assay that measures conversion of a tetrazolium compound (3-(4,5-dimethyl-2-yl)-5-(3-carboxymethoxyphenyl)-2-(4-sulfophenyl)-2H-tetrazolium, inner salt; the MTS assay) to a colored formazan compound in live cells. The conversion of MTS to formazan was detected in a 96-well microtiter plate reader, and the resulting optical densities could then be plotted directly to estimate cell viability. CELLTITER 96® AQueous One Solution Cell (Promega) was the one-step assay used, according to the manufacturer's protocol, and cells were incubated for three hours in the presence of reagent before O.D. reading was done. KIN2000 was diluted to final concentrations of 0, 1, 5, 10, and 20 μM in media containing 0.5% DMSO. Negative control wells contained no compound, and positive control for cytotoxicity was examined using an EMCV infection which causes 100% cytopathic effect. Each compound concentration and control was done in triplicate wells.

ISG54 promoter = assay: Luciferase reporter assay, ISG54 promoter; assay type: cell-based; details: stably transfected human cells, 18-20 hours with compound, FIG. 1A
Experimental: as §3

ISG56 promoter = assay: Luciferase reporter assay, ISG56 promoter; assay type: cell-based; details: stably transfected human cells, 18-20 hours with compound, FIG. 1A
Experimental: as §3

**Q.** How did the “IRF-3 translocation to the nucleus (nuclear-cytoplasmic difference)” value (IRF-3) turn out when `Cn1c(=O)c2c(SCc3cccc(C(F)(F)F)c3)nc(-c3ccco3)nc2n(C)c1=O` [KIN2000] was run?
**A.** dose dependent increase; also recorded: dose-dependent increase

**Q.** What about the “NFκB translocation (nuclear-cytoplasmic difference)” value (NFκB) of the same molecule?
**A.** dose dependent increase; also recorded: dose-dependent increase

**Q.** What about the “induction of non-specific β-actin promoter (luciferase reporter)” value (β-actin promoter) of the same molecule?
**A.** did not induce; also recorded: does not induce

**Q.** And the “induction of IFNβ-luciferase reporter gene” value (IFNβ promoter)?
**A.** dose-dependent induction

**Q.** And the IL-8 expression [1]?
**A.** induce expression; also recorded: dose-dependent expression

**Q.** What about the “MCP-1 (CCL2) expression” value [1] of the same molecule?
**A.** induce expression; also recorded: dose-dependent expression

**Q.** What about the “MIP-1α (CCL3) expression” value [1] of the same molecule?
**A.** induce expression; also recorded: dose-dependent expression

**Q.** And the “MIP-1β (CCL4) expression” value [1]?
**A.** induce expression; also recorded: dose-dependent expression

**Q.** And the “cytotoxicity (MTS cell viability)” value (HeLa cells)?
**A.** no evident cytotoxicity; also recorded: did not show evident cytotoxicity

**Q.** What about the “induction of ISG54-luciferase reporter gene” value (ISG54 promoter) of the same molecule?
**A.** dose-dependent induction

**Q.** What about the “induction of ISG56-luciferase reporter gene” value (ISG56 promoter) of the same molecule?
**A.** dose-dependent induction
